Assay results reported in patent publication US7935507B2, “Method for testing substances on biomatrices” (Humanautocell GmbH, priority 2004, dated 2011).

Test system: CYP2E1
Conditions: tissue equivalent strips (hepatocytes + Langerhan's islet cells on matrix) in William's medium E, 37° C.; benzene 0.005, 0.01, 0.02, 0.05 and 0.1 mM, several hours; compared with basic activity before addition
Method: The strips are placed in approximately 1 liter of William's medium E, which is agitated. Adequate gas exchange is ensured, and the temperature of the medium is maintained at 37° C.
After the system has equilibrated, a first strip of tissue equivalent is removed and the CYP2E1 activity thereon is determined via the EFCOD test method. Using the said method, the CYP2E1mediated O-dealkylation of 7-ethoxy-4-trifluoromethylcoumarin to 7-hydroxy-4-trifluoromethylcoumarin is determined.
The benzene is allowed to act for several hours, while maintaining the medium in agitation and ensuring the gas exchange. Then the CYP2E1 activity is determined once again in the way described in the foregoing.

Compound: c1ccccc1 [benzene]
- CYP2E1 activity (O-dealkylation of 7-ethoxy-4-trifluoromethylcoumarin to 7-hydroxy-4-trifluoromethylcoumarin): distinct increase of the basic activity with increasing benzene concentration
